Data published in publication PMC10497752, “Heparins are potent inhibitors of ectonucleotide pyrophosphatase/phospho-diesterase-1 (NPP1) – a promising target for the immunotherapy of cancer” (Frontiers in Immunology, 2023).

System: ectonucleotidases expressed in U87 cell membrane preparations
Experiment: Enzymatic assay on U87 cell membrane preparations (adenosine formation, CE)
Assay type: biochemical, human
Conditions: 10 µg, 30 min 37°C, substrate 6 to 500 µM
Method: U87 glioblastoma cells were grown in cell culture dishes until reaching a fully covered confluent cell layer. Cells were cultivated at 37°C and 5% CO2 in DMEM with additions of 10% FCS, 1% penicillin/streptomycin (P/S) mixture and 1% L-glutamine. When confluent, the cell culture media was carefully removed and cells were frozen at -20°C overnight. The cells were then scraped off with a cell scraper using 2-3 mL of buffer (5 mM Tris, 2 mM EDTA, pH 7.4), homogenized and centrifuged for 10 min at 1000 g. The supernatant was collected and centrifuged for 60 min at 48000 g and 4°C. The pellet was then resuspended twice with Tris buffer, pH 7.4, followed by vortexing and centrifugation. The whole procedure was performed on ice. Finally, the pellet was resuspended and homogenized. A protein concentration of 1.5 mg/mL was determined with the Bradford method ([35]), and the protein was kept at -20°C until used. The enzymatic assay was performed by incubating the membrane preparation and the substrate at 37°C and 500 rpm for 30 min, followed by heat inactivation at 95°C for 5 min. For the determination of kinetic parameters, several substrate concentrations (from 6 to 500 µM of ATP or AMP) were utilized and incubated with 10 µg of membrane preparation for 30 min at 37°C, followed by heat inactivation. Capillary electrophoresis (CE) was used for analysis and quantification of the enzymatic product according to published procedures ([11], [36]). For the determination of the enzymatic activity 400 µM of ATP were employed, and three different amounts of membrane preparation (6, 10 and 30 µg of protein) were utilized. A positive control using the known NPP1 inhibitor PSB-POM-141 (20 µM) was performed ([19]). Data were obtained from three independent experiments each in duplicate measurements. […] Controls were run in parallel.

Row | Compound | Km [µM]
1 | Nc1ncnc2c1ncn2[C@@H]1O[C@H](COP(=O)(O)O)[C@@H](O)[C@H]1O [AMP] | 38
2 | Nc1ncnc2c1ncn2[C@@H]1O[C@H](COP(=O)(O)OP(=O)(O)OP(=O)(O)O)[C@@H](O)[C@H]1O [ATP] | 83
